In patent publication US8338622B2, “Heterocyclic compound” (Takeda Pharmaceutical Company Limited, priority 2008, dated 2012):

Experiments:
human RBP4 = target: T1, human RBP4 (Homo sapiens, UniProt P02753); test: Binding assay by Retinol-RBP4-TTR ELISA (human type ELISA); conditions: retinol 0.5 μM, read-out: human RBP4 binding inhibitory activity (IC50 nM)
T1 construct: the culture supernatant containing secreted/expressed hRBP4-His was recovered; His tag (His6, read from the HISENU oligo); made in house; host or cells: FreeStyle293 expression system (Invitrogen), secreted into the culture supernatant
Procedure: The action of the compound of the present invention to inhibit the binding between RBP4, and retinol and TTR was evaluated using the Retinol-RBP4-TTR ELISA (human type ELISA) system shown below.
The binding assay was performed by an ELISA system (Retinol-RBP4-TTR ELISA) for detecting retinol-RBP4-TTR conjugate by streptavidin-biotin reaction.
His-tagged human RBP4 used was prepared in the above-mentioned 1C.
Biotinylated human TTR used was prepared in the above-mentioned 1E.
Streptavidin (20 μl) (10 μg/ml Streptavidin type II (Wako Pure Chemical Industries, Ltd.), 10 mM Tris-HCl (pH 7.5), 10 mM NaCl) was added to a 384 well black maxisorp plate (Nunc), and the plate was subjected to centrifugation (1000 rpm, 1 min) and coated overnight at 4° C. The plate was washed twice with PBST (PBS, 0.05% Tween 20, 100 μl/well) and blocked with 25% Block Ace (Snow Brand Milk Products Co., Ltd., PBS, 100 μl/well). The plate was subjected to centrifugation (1000 rpm, 1 min) and incubated at room temperature for 4 hr or overnight at 4° C. The plate was washed twice with PBST (PBS, 0.05% Tween 20, 100 μl/well), and biotinylated human TTR (stock solution concentration 1.3 mg/ml) diluted 1000-fold with PBST was added at 20 μl/well. The plate was subjected to centrifugation (1000 rpm, 1 min) and stood still at room temperature for 1.5 hr or overnight at 4° C. The plate was washed 3 times with PEST (100 μl/well), and His-tagged human RBP4 (stock solution concentration 0.96 mg/ml) diluted 4000-fold with a reaction buffer (50 mM Tris-HCl, 150 mM NaCl, 0.005% Tween 20, 1 mM DTT, 0.1% BSA) was added at 10 μl/well. The dilution series (8 doses from 10 mM, 200-fold concentration) of the compound was prepared with DMSO, and 1 μl of each was added to a reaction buffer (200 μl) containing retinol (0.5 μM) (Sigma-Aldrich Co.). A reaction buffer (200 μl) containing retinol and added with DMSO was used as a positive control, and reaction buffer (200 μl) free of retinol and added with DMSO was used as a negative control. Mixed solutions of retinol and the compound were added to the plate at 15 μl/well. The mixture was stirred in a platemixer, subjected to centrifugation (1000 rpm, 1 min) and reacted at room temperature for 2 hr. A 35% Block Ace solution diluted with the reaction buffer was added at 10 μl/well, centrifuged (1000 rpm, 1 min) and reacted at room temperature for 30 min. The plate was washed 3 times with PBST (100 μl/well) and SuperSignal ELISA Femto Maximum Sensitivity Substrate reagent (PIERCE) was added at 30 μl/well, and the luminescence was measured by a platereader (Wallac).
The binding activity rate of the compound was determined by 100×(test compound value−negative control value)/(positive control value−negative control value). The binding inhibitory activity (IC50) was calculated from the binding activity rate at each compound concentration using a graph drawing software, Prism (GraphPad Software Inc.).

RBP4 = target: T2, RBP4 (Mus musculus, UniProt Q00724); test: Blood RBP4 lowering action in C57BL/6J mouse, single oral administration; type: in vivo; conditions: plasma, mean±SD n=5; for RBP4 (% of initial/Control) 0 hr later: 0 hr value before administration, 50 mg/kg oral; for RBP4 (% of initial/Control) 4 hr later: 4 hr after 50 mg/kg oral; for RBP4 (% of initial/Control) 7 hr later: 7 hr after 50 mg/kg oral; for RBP4 (% of initial/Control) 24 hr later: 24 hr after 50 mg/kg oral
T2 construct: from tissue; host or cells: plasma of male C57BL/6J mice (Charles River Laboratories Japan Inc.)
Procedure: A blood RBP4 lowering action of the compound of the present invention was evaluated using C57BL/6J mouse.
Male 7- to 15-week-old C57BL/6J mice (Charles River Laboratories Japan Inc.) were individually bred for acclimation for 4-6 days under conditions with free access to CE-2 solid food (CLEA Japan, Inc.), and grouped based on the body weight (5 per group). The next day of grouping, blood samples were collected from the orbital venous plexus, and plasma was separated (0 hr value). Thereafter, the test compounds (Examples 1, 13, 15, 16, 17, 27 and 34) were orally administered at a dose of 50 mg/kg (solvent: 0.5% methylcellulose solution (10 mL/kg)). At 4, 7 and 24 hr after administration of the compounds, blood samples were collected from the orbital venous plexus, and plasma was separated. A 0.5% methylcellulose solution (10 mL/kg) was orally administered to the control group.
The RBP4 level of the collected plasma was measured by ELISA. RBP4 was quantified by the following steps using a rabbit, anti-mouse RBP4 polyclonal antibody (Hokudo Co., Ltd). A 96 well ELISA plate was coated with 50 μg/ml of the antibody (100 μL) and stood at 4° C. overnight. After blocking with BlockAce (DAINIPPON PHARMACEUTICAL CO., LTD.), mouse RBP4 or a sample (100 μL) was added and the plate was stood at room temperature for 2 hr. After washing with PBS-0.5% Tween 20, HRP-labeled anti-RBP4 antibody (prepared by labeling RBP4 polyclonal antibody (Hokudo Co., Ltd) with HRP (DOJINDO LABORATORIES)) was added by 100 μL, and the plate was stood at room temperature for 1 hr. After washing, TMB (Dako Cytomations) was added, and the mixture was stood at room temperature for 20 min to allow color development, and the reaction was quenched with 2N sulfuric acid. Thereafter, the absorbance at A450 nm was measured on a platereader. The amount of change from the initial value of each animal was determined as a relative value from the control group (% of initial/Control) at each time point. The results are shown in the following in mean±standard deviation (n=5).

Zucker fa/fa rats = test: Hypoglycemic action in Zucker fa/fa rats (Experimental Example 4B); type: in vivo, rat; conditions: 10 mg/kg oral for 2 weeks, mean±SD n=5; for blood glucose level / RBP4: 24 hr after final administration; for glycated hemoglobin change (%): value after minus before administration; for RBP4: plasma
Procedure: A hypoglycemic action of the compound of the present invention was evaluated using Zucker fa/fa rats.
Male 25-week-old Zucker fa/fa rats (Takeda Pharmaceutical Company Limited) were acclimation bred in groups on CE-2 solid food (CLEA Japan, Inc.) up to 12 weeks of age, thereafter on high-fat diet D06110702 (LSG Corporation), with free access to food. At 25 weeks of age, the rats were grouped based on the body weight, blood glucose level, glycated hemoglobin level and blood RBP4 level (5 per group). Then, test compounds (Examples 16 and 17) were orally administered at a dose of 10 mg/kg (solvent: 0.5% methylcellulose solution (3 mL/kg)) for 2 weeks. At 24 hr from the final administration of the compounds, blood samples were collected from the tail vein, and plasma was separated. Using the collected plasma, (1) RBP4 concentration, (2) glycated hemoglobin level and (3) blood glucose level were measured. (1) was quantified according to the protocol described in Experimental Example 3. (2) was measured using Tosoh Corporation automatic glycohamoglobin analyzer (HLC-723 GHbV A1c2.2 or HLC-723G7 GHbV A1c2.2), and (3) was measured using Hitachi full-automatic analyzer (7070 or 7080).
A 0.5% methylcellulose solution (3 ml/kg) was orally administered to the control group. The results are shown below in mean±standard deviation (n=5). In the following Table, glycated hemoglobin change is obtained by subtracting the value before administration from that after administration.

| IC50 (human RBP4) | RBP4 (% of initial/Control) 0 hr later (RBP4) | RBP4 (% of initial/Control) 4 hr later (RBP4) | RBP4 (% of initial/Control) 7 hr later (RBP4) | RBP4 (% of initial/Control) 24 hr later (RBP4) | SMILES | blood glucose level (Zucker fa/fa rats) | glycated hemoglobin change (%) (Zucker fa/fa rats) | RBP4 (Zucker fa/fa rats) |
| --- | --- | --- | --- | --- | --- | --- | --- | --- |
| 20 nM | 100.0 ± 7.1 % of initial/Control | 42.2 ± 0.6 % of initial/Control | 40.5 ± 0.2 % of initial/Control | 38.6 ± 0.8 % of initial/Control | O=C(O)CO[C@@H]1CCN(c2cc(C(F)(F)F)cc(C(F)(F)F)c2)C1 [Example 17, ({(3R)-1-[3,5-bis(trifluoromethyl)phenyl]pyrrolidin-3-yl}oxy)acetic acid] | 255.4 ± 106.7 mg/dL | −0.60 ± 0.39% | 6.0 ± 0.1 µg/mL |
| 28 nM | 100.0 ± 11.0 % of initial/Control | 39.5 ± 0.6 % of initial/Control | 39.6 ± 0.4 % of initial/Control | 37.5 ± 0.4 % of initial/Control | O=C(O)CO[C@H]1CCN(c2cc(C(F)(F)F)cc(C(F)(F)F)c2)C1 [Example 16, ({(3S)-1-[3,5-bis(trifluoromethyl)phenyl]pyrrolidin-3-yl}oxy)acetic acid] | 275.9 ± 127.5 mg/dL | −0.58 ± 0.59% | 5.7 ± 0.1 µg/mL |
